Laboratory results taken from patent US20240409558A1, “IRREVERSIBLE INHIBITORS OF KRAS” (BIOMEA FUSION, INC., priority 2021, published 2024).

tested on: human KRAS G12C mutated cell line MIA PaCa-2; experiment: Inhibition of proliferation of MIA PaCa-2 cells (CellTiter-Glo, 7 day); assay type: cell-based; conditions: 168 h, Table 2, CellTiter-Glo luminescence read on day 7, read-out: MIA PaCa-2 IC50
In short: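 MIA PaCa-2 cells (RPMI-1640, 10% FBS) seeded at about 1000 cells/well; eight compound concentrations in duplicate added 2 h later, with media and compound refreshed on day 3. ATP-luminescence viability read on day 7 by CellTiter-Glo; % inhibition relative to 0.2% DMSO control.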

SMILES | IC50 [µM]
Oc1cc(Cl)c(C2CC2)c(-c2ccc3c(N4C[C@H]5CC[C@@H](C4)N5)nc(OC[C@@]45CCCN4C[C@H](F)C5)nc3c2F)c1 [Compound 201, 3-(4-((1R,5S)-3,8-diazabicyclo[3.2.1]octan-3-yl)-8-fluoro-2-(((2R,7aS)-2-fluorotetrahydro-1H-pyrrolizin-7a(5H)-yl)methoxy)quinazolin-7-yl)-5-chloro-4-cyclopropylphenol] | 0.358

same assay, conditions: 168 h, Table 3, 7 day, mean, read-out: MIA PaCa-2 IC50 (μM) 7 day Mean

SMILES | IC50 [µM]
C=CC(=O)N1C2CCC1CN(c1nc(OC[C@@]34CCCN3C[C@H](F)C4)nc3c(F)c(N4CC(O)Cc5cccc(Cl)c54)ncc13)C2 (stereo partly drawn) [Compound 328, 1-[3-[7-(8-chloro-3-hydroxy-3,4-dihydro-2H-quinolin-1-yl)-8-fluoro-2-[[(2R,8S)-2-fluoro-1,2,3,5,6,7-hexahydropyrrolizin-8-yl]methoxy]pyrido[4,3-d]pyrimidin-4-yl]-3,8-diazabicyclo[3.2.1]octan-8-yl]prop-2-en-1-one] | > 1
C=CC(=O)N1C2CCC1CN(c1nc(OCC34CCCN3CCC4)nc3c(F)c(-c4cccc(Cl)c4C4CC4)ncc13)C2 [Compound 301, 1-[3-[7-(3-chloro-2-cyclopropyl-phenyl)-8-fluoro-2-(1,2,3,5,6,7-hexahydropyrrolizin-8-ylmethoxy)pyrido[4,3-d]pyrimidin-4-yl]-3,8-diazabicyclo[3.2.1]octan-8-yl]prop-2-en-1-one] | 0.16
C=CC(=O)N1C2CCC1CN(c1nc(OC[C@@]34CCCN3C[C@H](F)C4)nc3c(F)c(-c4cc(O)cc(Cl)c4C4CC4)ncc13)C2 [Compound 302, 1-[3-[7-(3-chloro-2-cyclopropyl-5-hydroxy-phenyl)-8-fluoro-2-[[(2R,8S)-2-fluoro-1,2,3,5,6,7-hexahydropyrrolizin-8-yl]methoxy]pyrido[4,3-d]pyrimidin-4-yl]-3,8-diazabicyclo[3.2.1]octan-8-yl]prop-2-en-1-one] | 0.000287
C=CC(=O)N1C[C@H]2C[C@@H]1CN2c1nc(OC[C@@]23CCCN2C[C@H](F)C3)nc2cc(-c3cc(O)cc(Cl)c3C3CC3)cnc12 [Compound 312, 1-[(1R,4R)-5-[7-(3-chloro-2-cyclopropyl-5-hydroxy-phenyl)-2-[[(2R,8S)-2-fluoro-1,2,3,5,6,7-hexahydropyrrolizin-8-yl]methoxy]pyrido[3,2-d]pyrimidin-4-y1]-2,5-diazabicyclo[2.2.1]heptan-2-yl]prop-2-en-1-one] | > 1
C=CC(=O)N1C2CCC1CN(c1nc(OC[C@@]34CCCN3C[C@H](F)C4)nc3cc(-c4cc(O)cc(Cl)c4C4CC4)c(F)cc13)C2 [Compound 308, 1-[3-[7-(3-chloro-2-cyclopropyl-5-hydroxy-phenyl)-6-fluoro-2-[[(2R,8S)-2-fluoro-1,2,3,5,6,7-hexahydropyrrolizin-8-yl]methoxy]quinazolin-4-y1]-3,8-diazabicyclo[3.2.1]octan-8-yl]prop-2-en-1-one] | 0.0282
C=CC(=O)N1C2CCC1CN(c1nc(OC[C@@]34CCCN3C[C@H](F)C4)nc3c(F)c(-c4c(C)c(Cl)cc5[nH]ncc45)ncc13)C2 [Compound 304, 1-[3-[7-(6-chloro-5-methyl-1H-indazol-4-yl)-8-fluoro-2-[[(2R,8S)-2-fluoro-1,2,3,5,6,7-hexahydropyrrolizin-8-yl]methoxy]pyrido[4,3-d]pyrimidin-4-yl]-3,8-diazabicyclo[3.2.1]octan-8-yl]prop-2-en-1-one] | 0.017
C=CC(=O)N1C[C@H]2C[C@@H]1CN2c1nc(OC[C@@]23CCCN2C[C@H](F)C3)nc2c(F)c(-c3cc(O)cc(Cl)c3C3CC3)ccc12 [Compound 311, 1-[(1R,4R)-5-[7-(3-chloro-2-cyclopropyl-5-hydroxy-phenyl)-8-fluoro-2-[[(2R,8S)-2-fluoro-1,2,3,5,6,7-hexahydropyrrolizin-8-yl]methoxy]quinazolin-4-yl]-2,5-diazabicyclo[2.2.1]heptan-2-yl]prop-2-en-1-one] | > 1
C=CC(=O)N1CCC(c2nc(OC[C@@]34CCCN3C[C@H](F)C4)nc3c(F)c(-c4cc(O)cc5ccc(F)c(F)c45)ncc23)C[C@H]1C (stereo in doubt) [Compound 334, 1-[(2R)-4-[7-(7,8-difluoro-3-hydroxy-1-naphthyl)-8-fluoro-2-[[(2R,8S)-2-fluoro-1,2,3,5,6,7-hexahydropyrrolizin-8-yl]methoxy]pyrido[4,3-d]pyrimidin-4-y1]-2-methyl-1-piperidyl]prop-2-en-1-one] | 0.00443

same assay, conditions: 168 h, Table 4, 7 day, mean, read-out: MIA PaCa-2 IC50 (μM) 7 day Mean

SMILES | IC50 [µM]
Oc1cc(-c2ncc3c(C4CCNCC4)nc(OC[C@@]45CCCN4C[C@H](F)C5)nc3c2F)c2c(F)c(F)ccc2c1 [Compound 435, 5,6-difluoro-4-[8-fluoro-2-[[(2R,8S)-2-fluoro-1,2,3,5,6,7-hexahydropyrrolizin-8-yl]methoxy]-4-(4-piperidyl)pyrido[4,3-d]pyrimidin-7-yl]naphthalen-2-ol] | > 1
Fc1cc2c(N3C[C@H]4C[C@@H]3CN4)nc(OC[C@@]34CCCN3C[C@H](F)C4)nc2cc1-c1cccc2cccc(Cl)c12 [Compound 411, 7-(8-chloro-1-naphthyl)-4-[(1R,4R)-2,5-diazabicyclo[2.2.1]heptan-2-y1]-6-fluoro-2-[[(2R,8S)-2-fluoro-1,2,3,5,6,7-hexahydropyrrolizin-8-yl]methoxy]quinazoline] | > 1
CC1(c2nc(OC[C@@]34CCCN3C[C@H](F)C4)nc3c(F)c(-c4cc(O)cc(Cl)c4C4CC4)ncc23)CCNCC1 [Compound 442, 3-chloro-4-cyclopropyl-5-[8-fluoro-2-[[(2R,8S)-2-fluoro-1,2,3,5,6,7-hexahydropyrrolizin-8-yl]methoxy]-4-(4-methyl-4-piperidyl)pyrido[4,3-d]pyrimidin-7-yl]phenol] | 8.87
CC(C)C(O)CN1C2CCC1CN(c1nc(OC[C@@]34CCCN3C[C@H](F)C4)nc3c(F)c(-c4cc(O)cc(Cl)c4C4CC4)ncc13)C2 (stereo partly shown) [Compound 434] | > 1
Oc1cc(Cl)c(C2CC2)c(-c2cnc3c(N4CCNC5(CC5)C4)nc(OC[C@@]45CCCN4C[C@H](F)C5)nc3c2)c1 [Compound 410] | > 1
C=C1CCN(c2nc(OC[C@@]34CCCN3C[C@H](F)C4)nc3c(F)c(-c4cc(O)cc(Cl)c4C4CC4)ncc23)CC1 [Compound 436, 3-chloro-4-cyclopropyl-5-[8-fluoro-2-[[(2R,8S)-2-fluoro-1,2,3,5,6,7-hexahydropyrrolizin-8-yl]methoxy]-4-(4-methylene-1-piperidyl)pyrido[4,3-d]pyrimidin-7-yl]phenol] | > 1
Oc1cc(Cl)c(C2CC2)c(-c2ccc3c(N4CC5CCC(C4)N5)nc(OC[C@@]45CCCN4C[C@H](F)C5)nc3c2)c1 [Compound 428, 3-chloro-4-cyclopropyl-5-[4-(3,8-diazabicyclo[3.2.1]octan-3-y1)-2-[[(2R,8S)-2-fluoro-1,2,3,5,6,7-hexahydropyrrolizin-8-yl]methoxy]quinazolin-7-yl]phenol] | > 1
C[C@H]1CC(c2nc(OC[C@@]34CCCN3C[C@H](F)C4)nc3c(F)c(-c4cc(O)cc5ccc(F)c(F)c45)ncc23)CCN1 (stereo partly drawn) [Compound 439, 5,6-difluoro-4-[8-fluoro-2-[[(2R,8S)-2-fluoro-1,2,3,5,6,7-hexahydropyrrolizin-8-yl]methoxy]-4-[(2S)-2-methyl-4-piperidyl]pyrido[4,3-d]pyrimidin-7-yl]naphthalen-2-ol] | > 1
Oc1cccc(Cl)c1-c1cc(F)c2c(N3CCNCC34CC4)nc(OC[C@@]34CCCN3C[C@H](F)C4)nc2c1 [Compound 419, 3-chloro-2-[4-(4,7-diazaspiro[2.5]octan-4-yl)-5-fluoro-2-[[(2R,8S)-2-fluoro-1,2,3,5,6,7-hexahydropyrrolizin-8-yl]methoxy]quinazolin-7-yl]phenol] | > 1
Oc1cc(Cl)c(C2CC2)c(-c2ccc3c(N4CCNCC45CC5)nc(OC[C@@]45CCCN4C[C@H](F)C5)nc3c2F)c1 [Compound 425, 3-chloro-4-cyclopropyl-5-[4-(4,7-diazaspiro[2.5]octan-4-yl)-8-fluoro-2-[[(2R,8S)-2-fluoro-1,2,3,5,6,7-hexahydropyrrolizin-8-yl]methoxy]quinazolin-7-y1]phenol] | 0.607
